Legend:
Type in all cases: biochemical
[1] = target: KDR kinase (Homo sapiens, UniProt P35968, DEL940-989/E990V); test: KDR kinase assay K1; details: read-out: Results, % @ concentration μM, Method K1; @ 10 μM
Experimental: (§1) IC50 values were calculated from a series of percent inhibition values determined at a range of inhibitor concentrations using software routines as implemented in the GraphPad Prism software package.

[2] = target: phosphorylated p-38-alpha kinase (Homo sapiens, UniProt Q16539); test: P-38 alpha kinase assay P1; details: Method P1; for IC50: 2 h pre-incubation before ATP
Chain of phosphorylated p-38-alpha kinase (Q16539 1-360 isoform Q16539-2): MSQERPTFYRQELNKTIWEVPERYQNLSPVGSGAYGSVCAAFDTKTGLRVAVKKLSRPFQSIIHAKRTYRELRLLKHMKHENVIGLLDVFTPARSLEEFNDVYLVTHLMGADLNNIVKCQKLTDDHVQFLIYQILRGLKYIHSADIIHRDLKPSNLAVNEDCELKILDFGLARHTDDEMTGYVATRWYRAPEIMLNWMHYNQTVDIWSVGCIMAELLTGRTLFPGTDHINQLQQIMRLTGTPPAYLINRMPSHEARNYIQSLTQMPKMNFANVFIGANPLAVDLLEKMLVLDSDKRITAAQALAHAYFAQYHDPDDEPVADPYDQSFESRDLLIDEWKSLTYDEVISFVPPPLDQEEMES

[3] = target: B-Raf(V599E) kinase (Homo sapiens, UniProt P15056, V600E); test: B-Raf(V599E) kinase assay B1; details: for IC50: Method B1, construct 1
Chain of B-Raf(V599E) kinase (P15056 with tags, fused parts or gaps V600E): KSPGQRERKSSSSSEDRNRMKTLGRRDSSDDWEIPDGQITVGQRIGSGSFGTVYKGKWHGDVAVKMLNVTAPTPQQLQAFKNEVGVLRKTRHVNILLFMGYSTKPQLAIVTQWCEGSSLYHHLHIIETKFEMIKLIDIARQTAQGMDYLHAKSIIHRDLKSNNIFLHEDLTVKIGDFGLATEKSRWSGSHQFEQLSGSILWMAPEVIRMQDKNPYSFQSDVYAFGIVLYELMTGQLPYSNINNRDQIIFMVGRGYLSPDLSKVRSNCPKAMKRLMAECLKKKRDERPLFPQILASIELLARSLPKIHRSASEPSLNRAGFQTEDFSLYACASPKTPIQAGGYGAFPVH
Experimental: The test compounds were incubated with the reaction mixture at 30° C. for 2 h. […] The reaction rate was calculated using the 1.5 h to 2.5 h time frame. […] IC50 values were calculated from a series of percent inhibition values determined at a range of inhibitor concentrations using software routines as implemented in the GraphPad Prism software package.

[4] = target: T1, phospho p-38 alpha kinase (Homo sapiens, UniProt Q16539); test: P-38 alpha kinase assay (spectrophotometric, pyruvate kinase/lactate dehydrogenase coupled); details: Table 5; for IC50: assay not named, read-out: uM
T1 construct: purchased Panvera
T1 sequence (Q16539 whole entry): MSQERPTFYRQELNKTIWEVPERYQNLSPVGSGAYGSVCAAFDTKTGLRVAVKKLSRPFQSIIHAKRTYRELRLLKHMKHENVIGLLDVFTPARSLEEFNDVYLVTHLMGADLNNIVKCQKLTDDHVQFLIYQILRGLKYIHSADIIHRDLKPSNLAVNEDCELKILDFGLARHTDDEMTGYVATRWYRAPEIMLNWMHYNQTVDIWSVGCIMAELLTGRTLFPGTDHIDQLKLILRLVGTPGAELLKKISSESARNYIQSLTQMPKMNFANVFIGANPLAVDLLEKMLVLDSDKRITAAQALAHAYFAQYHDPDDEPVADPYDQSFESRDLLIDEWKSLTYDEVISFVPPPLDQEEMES

[5] = target: T2, Abl kinase (Homo sapiens, UniProt P00519); test: Abl kinase assay A1; details: for inhibition at 10 µM: read-out: Results, % @ concentration μM, Method A1
T2 sequence (P00519 229-512): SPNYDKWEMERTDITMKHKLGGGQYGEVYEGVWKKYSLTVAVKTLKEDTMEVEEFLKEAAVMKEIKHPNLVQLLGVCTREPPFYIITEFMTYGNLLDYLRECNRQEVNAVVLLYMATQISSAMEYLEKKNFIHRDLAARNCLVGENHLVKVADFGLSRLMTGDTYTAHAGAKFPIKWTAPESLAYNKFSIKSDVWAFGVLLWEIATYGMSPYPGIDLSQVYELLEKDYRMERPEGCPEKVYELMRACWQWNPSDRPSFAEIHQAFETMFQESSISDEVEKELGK
Experimental: as §1

[6] = read-out: Results, % @ concentration μM

Chain of KDR kinase (P35968 with tags, fused parts or gaps DEL940-989/E990V): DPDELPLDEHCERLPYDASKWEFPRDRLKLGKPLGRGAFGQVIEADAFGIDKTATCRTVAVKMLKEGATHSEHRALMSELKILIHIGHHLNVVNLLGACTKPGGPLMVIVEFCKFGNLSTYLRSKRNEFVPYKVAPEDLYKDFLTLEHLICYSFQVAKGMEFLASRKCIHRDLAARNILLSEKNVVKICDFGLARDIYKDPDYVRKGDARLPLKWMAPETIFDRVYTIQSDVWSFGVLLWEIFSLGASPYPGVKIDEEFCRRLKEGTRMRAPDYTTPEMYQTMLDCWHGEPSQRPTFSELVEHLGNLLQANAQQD

Structure (SMILES)	inhibition at 10 µM [1] [%]	IC50 [2] [µM]	IC50 [4] [µM]	inhibition at 1 µM [3, 6] [%]	also measured
O=C(Nc1cccc(Cl)c1Cl)Nc1cc(-c2ccccc2)nn1-c1cccc(CO)c1 [Example 484, 1-(2,3-dichlorophenyl)-3-(1-(3-(hydroxymethyl)phenyl)-3-phenyl-1H-pyraol-5-yl)urea]	37	0.009			IC50 [3]: 7.4 µM
O=C(Cc1ccc(-n2nc(-c3ccccc3)cc2NC(=O)Nc2cccc(Cl)c2Cl)cc1)NCCO [Example 470, 1-(2,3-dichlorophenyl)-3-(1-(4-(2-(2-hydroxyethylamino)-2-oxoethyl)phenyl)-3-phenyl-1H-pyrazol-5-yl)urea]			0.005		inhibition at 10 µM [5]: 15%
COC(=O)Cc1ccc(-n2nc(-c3ccsc3)cc2NC(=O)Nc2cccc(Cl)c2Cl)cc1 [Example 445, methyl 2-(4-(5-(3-(2,3-dichlorophenyl)ureido)-3-(thiophen-3-yl)-1H-pyrazol-1-yl)phenyl)acetate]				39	inhibition at 10 µM [5]: 30%
O=C(O)Cc1ccc(-n2nc(-c3cccs3)cc2NC(=O)Nc2cccc(Cl)c2Cl)cc1 [Example 442, 2-(4-(5-(3-(2,3-dichlorophenyl)ureido)-3-(thiophen-2-yl)-1H-pyrazol-1-yl)phenyl)acetic acid]	25		3.01	24	
O=C(Nc1cccc(Cl)c1Cl)Nc1cc(-c2ccccc2F)nn1-c1cccc(CO)c1 [Example 485, 1-(2,3-dichlorophenyl)-3-(3-(2-fluorophenyl)-1-(3-(hydroxymethyl)phenyl)-1H-pyrazol-5-yl)urea]	79		0.05		
CC(C(=O)O)c1ccc(-n2nc(-c3cccs3)cc2NC(=O)Nc2cccc(Cl)c2Cl)cc1 (centres unmarked) [Example 443, 2-(4-(5-(3-(2,3-dichlorophenyl)ureido)-3-(thiophen-2-yl)-1H-pyrazol-1-yl)phenyl)propanoic acid]	33	0.03		20	
CC(C)(C)c1cc(NC(=O)Nc2cccc(-c3ccc(N)nc3)c2)n(-c2cccc(CC(N)=O)c2)n1 [Example 508, 1-(1-(3-(2-amino-2-oxoethyl)phenyl)-3-tert-butyl-1H-pyrazol-5-yl)-3-(3-(6-aminopyridin-3-yl)phenyl)urea]		0.33	0.052		inhibition at 10 µM [5]: 32%; IC50 [3]: 0.02 µM
NC(=O)Cc1cccc(-n2nc(-c3cccc(F)c3)cc2NC(=O)Nc2cccc(Cl)c2Cl)c1 [Example 449, 1-(1-(3-(2-amino-2-oxoethyl)phenyl)-3-(3-fluorophenyl)-1H-pyrazol-5-yl)-3-(2,3-dichlorophenyl)urea]	33	0.022			
CC(C)(C)c1cc(NC(=O)Nc2cccc(Cl)c2Cl)n(-c2ccc(CC(=O)N3CCCC(C(=O)O)C3)cc2)n1 (centres unmarked) [Example 476, 1-(2-(4-(3-tert-butyl-5-(3-(2,3-dichlorophenyl)ureido)-1H-pyrazol-1-yl)phenyl)acetyl)piperidine-3-carboxylic acid]		0.006	0.024		IC50 ([5]; Method A1, read-out: Results, μM (IC50)): 8.4 µM; IC50 [3]: 0.041 µM
NC(=O)Cc1cccc(-n2nc(-c3ccccc3F)cc2NC(=O)Nc2cccc(Cl)c2Cl)c1 [Example 450, 1-(1-(3-(2-amino-2-oxoethyl)phenyl)-3-(2-fluorophenyl)-1H-pyrazol-5-yl)-3-(2,3-dichlorophenyl)urea]	45	0.013			% @ concentration, uM ([4]; @ 1 uM): 89%; % @ concentration, uM ([4]; @ 10 uM): 192%
O=C(Cc1cccc(-n2nc(-c3ccccc3F)cc2NC(=O)Nc2cccc(Cl)c2Cl)c1)NCCO [Example 456, 1-(2,3-dichlorophenyl)-3-(3-(2-fluorophenyl)-1-(3-(2-(2-hydroxyethylamino)-2-oxoethyl)phenyl)-1H-pyrazol-5-yl)urea]	53	0.015	0.04		
O=C(Cc1cccc(-n2nc(-c3cccs3)cc2NC(=O)Nc2cccc(Cl)c2Cl)c1)NCC(O)CO (centres unmarked) [Example 460, 1-(2,3-dichlorophenyl)-3-(1-(3-(2-(2,3-dihydroxypropylamino)-2-oxoethyl)phenyl)-3-(thiophen-2-yl)-1H-pyrazol-5-yl)urea]	26	0.008			IC50 [3]: 2.4 µM
O=C(Cc1cccc(-n2nc(-c3cccs3)cc2NC(=O)Nc2cccc(Cl)c2Cl)c1)NCCO [Example 457, 1-(2,3-dichlorophenyl)-3-(1-(3-(2-(2-hydroxyethylamino)-2-oxoethyl)phenyl)-3-(thiophen-2-yl)-1H-pyrazol-5-yl)urea]	31	0.008	1.1		
NC(=O)Cc1ccc(-n2nc(-c3ccsc3)cc2NC(=O)Nc2cccc(Cl)c2Cl)cc1 [Example 469, 1-(1-(4-(2-amino-2-oxoethyl)phenyl)-3-(thiophen-3-yl)-1H-pyrazol-5-yl)-3-(2,3-dichlorophenyl)urea]		0.009		43	inhibition at 10 µM [5]: 22%
NC(=O)Cc1cccc(-n2nc(-c3ccsc3)cc2NC(=O)Nc2cccc(Cl)c2Cl)c1 [Example 452, 1-(1-(3-(2-amino-2-oxoethyl)phenyl)-3-(thiophen-3-yl)-1H-pyrazol-5-yl)-3-(2,3-dichlorophenyl)urea]		0.006		45	inhibition at 10 µM [5]: 37%
O=C(O)Cc1ccc(-n2nc(-c3ccccc3F)cc2NC(=O)Nc2cccc(Cl)c2Cl)cc1 [Example 440, 2-(4-(5-(3-(2,3-dichlorophenyl)ureido)-3-(2-fluorophenyl)-1H-pyrazol-1-yl)phenyl)acetic acid]	56	0.009	0.92		
O=C(Cc1cccc(-n2nc(-c3cccs3)cc2NC(=O)Nc2cccc(Cl)c2Cl)c1)NC(CO)CO [Example 462, 1-(2,3-dichlorophenyl)-3-(1-(3-(2-(1,3-dihydroxypropan-2-ylamino)-2-oxoethyl)phenyl)-3-(thiophen-2-yl)-1H-pyrazol-5-yl)urea]	25	0.008		43	
O=C(O)Cc1cccc(-n2nc(-c3ccc(F)cc3)cc2NC(=O)Nc2cccc(Cl)c2Cl)c1 [Example 431, 2-(3-(5-(3-(2,3-dichlorophenyl)ureido)-3-(4-fluorophenyl)-1H-pyrazol-1-yl)phenyl)acetic acid]					inhibition at 10 µM [5]: 29%
O=C(O)Cc1ccc(-n2nc(-c3ccccc3)cc2NC(=O)Nc2cccc(Cl)c2Cl)cc1 [Example 438, 2-(4-(5-(3-(2,3-dichlorophenyl)ureido)-3-phenyl-1H-pyrazol-1-yl)phenyl)acetic acid]	39		1.3		
CC(C(N)=O)c1cccc(-n2nc(-c3ccsc3)cc2NC(=O)Nc2cccc(Cl)c2Cl)c1 (centres unmarked) [Example 453, 1-(1-(3-(1-amino-1-oxopropan-2-yl)phenyl)-3-(thiophen-3-yl)-1H-pyrazol-5-yl)-3-(2,3-dichlorophenyl)urea]	34				
O=C(Cc1cccc(-n2nc(-c3ccccc3F)cc2NC(=O)Nc2cccc(Cl)c2Cl)c1)NC(CO)CO [Example 461, 1-(2,3-dichlorophenyl)-3-(1-(3-(2-(1,3-dihydroxypropan-2-ylamino)-2-oxoethyl)phenyl)-3-(2-fluorophenyl)-1H-pyrazol-5-yl)urea]	33	0.03	0.017		inhibition at 10 µM [3, 6]: 28%
O=C(Cc1cccc(-n2nc(-c3ccsc3)cc2NC(=O)Nc2cccc(Cl)c2Cl)c1)NCCO [Example 458, 1-(2,3-dichlorophenyl)-3-(1-(3-(2-(2-hydroxyethylamino)-2-oxoethyl)phenyl)-3-(thiophen-3-yl)-1H-pyrazol-5-yl)urea]		0.007	1	28	
O=C(Cc1cccc(-n2nc(-c3ccccc3)cc2NC(=O)Nc2cccc(Cl)c2Cl)c1)NCCO [Example 454, 1-(2,3-dichlorophenyl)-3-(1-(3-(2-(2-hydroxyethylamino)-2-oxoethyl)phenyl)-3-phenyl-1H-pyrazol-5-yl)urea]	27				
O=C(Cc1cccc(-n2nc(-c3cccc(F)c3)cc2NC(=O)Nc2cccc(Cl)c2Cl)c1)NCCO [Example 455, 1-(2,3-dichlorophenyl)-3-(3-(3-fluorophenyl)-1-(3-(2-(2-hydroxyethylamino)-2-oxoethyl)phenyl)-1H-pyrazol-5-yl)urea]		0.018	0.1	30	
CC(C)(C)c1cc(NC(=O)Nc2cccc(-c3cnccn3)c2)n(-c2cccc(CC(N)=O)c2)n1 [Example 509, 1-(1-(3-(2-amino-2-oxoethyl)phenyl)-3-tert-butyl-1H-pyrazol-5-yl)-3-(3-(pyrazin-2-yl)phenyl)urea]			0.5		Results, % @ concentration μM ([2]; @ 1.0 μM): 57% @1.0; IC50 [3]: 0.28 µM
